Data as given in ChEMBL document CHEMBL4507277.

What was measured:
[1] = biological target: Fibroblast growth factor receptor 4 (Homo sapiens) (UniProt P22455); conditions: Compound concentration 1000.0 nM
[2] = system: Receptor-type tyrosine-protein kinase FLT3 (Homo sapiens), P36888 [N841I]; conditions: Compound concentration 1000.0 nM
[3] = biological target: Serine/threonine-protein kinase 32C (Homo sapiens) (UniProt Q86UX6); conditions: Compound concentration 1000.0 nM
[4] = biological target: cAMP-dependent protein kinase catalytic subunit alpha (Homo sapiens) (UniProt P17612); conditions: Compound concentration 1000.0 nM
[5] = biological target: cGMP-dependent protein kinase 1 (Homo sapiens) (UniProt Q13976); conditions: Compound concentration 1000.0 nM
[6] = biological target: Leucine-rich repeat serine/threonine-protein kinase 2 (Homo sapiens) (UniProt Q5S007); conditions: Compound concentration 1000.0 nM
[7] = biological target: Phosphatidylinositol 3-kinase C2 domain-containing subunit gamma (Homo sapiens) (UniProt O75747); conditions: Compound concentration 1000.0 nM
[8] = biological target: Serine/threonine-protein kinase N2 (Homo sapiens) (UniProt Q16513); conditions: Compound concentration 1000.0 nM
[9] = biological target: Tyrosine-protein kinase ABL1 (Homo sapiens) (UniProt P00519); conditions: Compound concentration 1000.0 nM
[10] = biological target: RAF proto-oncogene serine/threonine-protein kinase (Homo sapiens) (UniProt P04049); conditions: Compound concentration 1000.0 nM
[11] = biological target: Serine/threonine-protein kinase RIO2 (Homo sapiens) (UniProt Q9BVS4); conditions: Compound concentration 1000.0 nM
Sequence of Serine/threonine-protein kinase RIO2 (Homo sapiens) (Q9BVS4 whole entry, looked up): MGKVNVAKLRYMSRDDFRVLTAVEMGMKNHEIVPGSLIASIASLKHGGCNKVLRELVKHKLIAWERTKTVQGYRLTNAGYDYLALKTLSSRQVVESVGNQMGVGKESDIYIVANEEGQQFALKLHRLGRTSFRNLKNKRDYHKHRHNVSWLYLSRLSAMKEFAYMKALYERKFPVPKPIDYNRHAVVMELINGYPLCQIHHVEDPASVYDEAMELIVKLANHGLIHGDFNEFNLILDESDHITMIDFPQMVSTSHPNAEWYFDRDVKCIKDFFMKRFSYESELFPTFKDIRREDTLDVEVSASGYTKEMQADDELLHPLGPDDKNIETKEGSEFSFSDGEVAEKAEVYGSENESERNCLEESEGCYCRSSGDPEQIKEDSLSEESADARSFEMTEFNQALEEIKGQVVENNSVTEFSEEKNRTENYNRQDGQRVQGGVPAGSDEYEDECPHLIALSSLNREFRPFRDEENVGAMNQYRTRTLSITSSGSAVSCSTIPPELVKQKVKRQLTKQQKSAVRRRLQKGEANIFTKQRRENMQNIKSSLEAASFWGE

[12] = biological target: Beta-2 adrenergic receptor (Homo sapiens) (UniProt P07550); conditions: Compound concentration 10.0 uM
[13] = biological target: Cyclin-dependent kinase 16 (Homo sapiens) (UniProt Q00536); conditions: Compound concentration 1000.0 nM
[14] = system: Phosphatidylinositol 4,5-bisphosphate 3-kinase catalytic subunit alpha isoform (Homo sapiens), P42336 [C420R]; conditions: Compound concentration 1000.0 nM
[15] = biological target: Mitogen-activated protein kinase kinase kinase 15 (Homo sapiens) (UniProt Q6ZN16); conditions: Compound concentration 1000.0 nM
[16] = biological target: Serine/threonine-protein kinase VRK2 (Homo sapiens) (UniProt Q86Y07); conditions: Compound concentration 1000.0 nM
[17] = system: Epidermal growth factor receptor (Homo sapiens), P00533 [UNDEFINED MUTATION]; conditions: Compound concentration 1000.0 nM
[18] = biological target: SNF-related serine/threonine-protein kinase (Homo sapiens) (UniProt Q9NRH2); conditions: Compound concentration 1000.0 nM
Sequence of SNF-related serine/threonine-protein kinase (Homo sapiens) (Q9NRH2 whole entry): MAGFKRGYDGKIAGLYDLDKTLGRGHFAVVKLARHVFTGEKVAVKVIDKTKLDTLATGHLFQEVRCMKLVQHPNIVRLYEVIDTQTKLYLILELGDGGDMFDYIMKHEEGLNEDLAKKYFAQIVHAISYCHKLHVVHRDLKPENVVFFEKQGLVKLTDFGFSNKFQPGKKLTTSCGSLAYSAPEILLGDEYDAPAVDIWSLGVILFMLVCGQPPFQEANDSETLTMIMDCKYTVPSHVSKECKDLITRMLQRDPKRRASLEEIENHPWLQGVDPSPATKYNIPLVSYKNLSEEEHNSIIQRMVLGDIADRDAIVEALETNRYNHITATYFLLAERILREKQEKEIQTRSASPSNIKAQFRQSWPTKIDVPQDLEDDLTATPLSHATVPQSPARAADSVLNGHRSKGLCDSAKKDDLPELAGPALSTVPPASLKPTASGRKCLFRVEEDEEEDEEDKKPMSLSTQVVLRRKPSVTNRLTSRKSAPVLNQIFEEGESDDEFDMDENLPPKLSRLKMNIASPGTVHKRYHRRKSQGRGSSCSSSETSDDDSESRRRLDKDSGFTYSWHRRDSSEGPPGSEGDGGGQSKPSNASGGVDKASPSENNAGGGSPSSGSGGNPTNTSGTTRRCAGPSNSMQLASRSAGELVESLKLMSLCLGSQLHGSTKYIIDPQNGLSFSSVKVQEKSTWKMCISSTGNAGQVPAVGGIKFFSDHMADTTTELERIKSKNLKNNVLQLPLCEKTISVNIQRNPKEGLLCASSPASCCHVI

[19] = biological target: Myosin light chain kinase (Homo sapiens) (UniProt Q32MK0); conditions: Compound concentration 1000.0 nM
Sequence of Myosin light chain kinase (Homo sapiens) (Q32MK0 whole entry): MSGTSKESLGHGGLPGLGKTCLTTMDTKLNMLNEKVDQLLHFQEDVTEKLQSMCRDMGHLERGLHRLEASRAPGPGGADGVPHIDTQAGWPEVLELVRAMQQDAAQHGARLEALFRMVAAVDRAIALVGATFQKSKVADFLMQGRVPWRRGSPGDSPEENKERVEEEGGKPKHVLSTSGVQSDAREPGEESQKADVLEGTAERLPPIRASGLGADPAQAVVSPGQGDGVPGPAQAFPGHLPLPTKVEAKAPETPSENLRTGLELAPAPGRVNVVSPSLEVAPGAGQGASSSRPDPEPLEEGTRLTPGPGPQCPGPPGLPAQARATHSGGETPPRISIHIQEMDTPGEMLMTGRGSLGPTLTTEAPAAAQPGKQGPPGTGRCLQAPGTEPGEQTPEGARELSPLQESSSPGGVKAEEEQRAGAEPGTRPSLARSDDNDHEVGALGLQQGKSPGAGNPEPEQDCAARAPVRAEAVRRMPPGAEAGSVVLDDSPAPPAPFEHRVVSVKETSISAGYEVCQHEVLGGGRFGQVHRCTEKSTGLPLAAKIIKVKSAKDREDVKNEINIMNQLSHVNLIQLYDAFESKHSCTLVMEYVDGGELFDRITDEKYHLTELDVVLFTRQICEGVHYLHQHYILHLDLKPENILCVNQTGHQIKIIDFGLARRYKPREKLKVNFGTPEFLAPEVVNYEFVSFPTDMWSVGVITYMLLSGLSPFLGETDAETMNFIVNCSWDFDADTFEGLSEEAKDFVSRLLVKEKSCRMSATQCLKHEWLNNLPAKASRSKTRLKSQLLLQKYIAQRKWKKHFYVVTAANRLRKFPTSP

[20] = biological target: Bone morphogenetic protein receptor type-2 (Homo sapiens) (UniProt Q13873); conditions: Compound concentration 1000.0 nM
[21] = biological target: Receptor tyrosine-protein kinase erbB-2 (Homo sapiens) (UniProt P04626); conditions: Compound concentration 1000.0 nM
[22] = biological target: Ephrin type-A receptor 3 (Homo sapiens) (UniProt P29320); conditions: Compound concentration 1000.0 nM
Sequence of Ephrin type-A receptor 3 (Homo sapiens) (P29320 whole entry): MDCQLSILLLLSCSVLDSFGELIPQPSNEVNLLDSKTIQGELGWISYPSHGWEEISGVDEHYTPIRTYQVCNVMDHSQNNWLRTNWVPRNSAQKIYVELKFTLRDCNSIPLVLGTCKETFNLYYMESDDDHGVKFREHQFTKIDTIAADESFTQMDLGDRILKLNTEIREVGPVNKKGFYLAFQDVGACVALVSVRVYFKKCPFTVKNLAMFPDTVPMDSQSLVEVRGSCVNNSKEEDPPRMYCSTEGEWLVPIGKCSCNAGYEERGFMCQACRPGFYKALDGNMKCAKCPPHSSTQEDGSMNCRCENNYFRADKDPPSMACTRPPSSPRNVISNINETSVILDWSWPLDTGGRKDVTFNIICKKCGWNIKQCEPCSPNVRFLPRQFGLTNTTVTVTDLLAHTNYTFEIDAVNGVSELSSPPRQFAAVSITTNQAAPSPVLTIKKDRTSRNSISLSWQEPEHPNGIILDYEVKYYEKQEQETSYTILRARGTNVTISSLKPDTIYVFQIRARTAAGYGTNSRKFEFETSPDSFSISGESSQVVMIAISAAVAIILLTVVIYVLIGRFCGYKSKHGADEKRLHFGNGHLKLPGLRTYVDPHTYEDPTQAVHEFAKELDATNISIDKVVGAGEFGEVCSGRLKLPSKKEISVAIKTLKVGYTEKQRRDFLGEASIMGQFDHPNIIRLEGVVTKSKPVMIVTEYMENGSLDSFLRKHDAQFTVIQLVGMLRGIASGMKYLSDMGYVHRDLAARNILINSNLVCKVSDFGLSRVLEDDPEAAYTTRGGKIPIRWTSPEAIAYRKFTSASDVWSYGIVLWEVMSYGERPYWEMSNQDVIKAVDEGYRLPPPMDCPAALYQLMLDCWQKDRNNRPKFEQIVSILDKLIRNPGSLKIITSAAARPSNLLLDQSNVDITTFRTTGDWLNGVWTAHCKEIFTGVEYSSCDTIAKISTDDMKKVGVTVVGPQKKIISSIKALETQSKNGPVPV

[23] = biological target: Serine/threonine-protein kinase SBK1 (Homo sapiens) (UniProt Q52WX2); conditions: Compound concentration 1000.0 nM
[24] = biological target: Mitogen-activated protein kinase kinase kinase 1 (Homo sapiens) (UniProt Q13233); conditions: Compound concentration 1000.0 nM
[25] = system: Mast/stem cell growth factor receptor Kit (Homo sapiens), P10721 [D816H]; conditions: Compound concentration 1000.0 nM
[26] = biological target: Serine/threonine-protein kinase PAK 4 (Homo sapiens) (UniProt O96013); conditions: Compound concentration 1000.0 nM
[27] = biological target: Serine/threonine-protein kinase Nek3 (Homo sapiens) (UniProt P51956); conditions: Compound concentration 1000.0 nM
[28] = biological target: Dual specificity protein kinase TTK (Homo sapiens) (UniProt P33981); conditions: Compound concentration 1000.0 nM
[29] = biological target: Phosphatidylinositol 4,5-bisphosphate 3-kinase catalytic subunit beta isoform (Homo sapiens) (UniProt P42338); conditions: Compound concentration 1000.0 nM
Sequence of Phosphatidylinositol 4,5-bisphosphate 3-kinase catalytic subunit beta isoform (Homo sapiens) (P42338 whole entry, looked up, canonical isoform): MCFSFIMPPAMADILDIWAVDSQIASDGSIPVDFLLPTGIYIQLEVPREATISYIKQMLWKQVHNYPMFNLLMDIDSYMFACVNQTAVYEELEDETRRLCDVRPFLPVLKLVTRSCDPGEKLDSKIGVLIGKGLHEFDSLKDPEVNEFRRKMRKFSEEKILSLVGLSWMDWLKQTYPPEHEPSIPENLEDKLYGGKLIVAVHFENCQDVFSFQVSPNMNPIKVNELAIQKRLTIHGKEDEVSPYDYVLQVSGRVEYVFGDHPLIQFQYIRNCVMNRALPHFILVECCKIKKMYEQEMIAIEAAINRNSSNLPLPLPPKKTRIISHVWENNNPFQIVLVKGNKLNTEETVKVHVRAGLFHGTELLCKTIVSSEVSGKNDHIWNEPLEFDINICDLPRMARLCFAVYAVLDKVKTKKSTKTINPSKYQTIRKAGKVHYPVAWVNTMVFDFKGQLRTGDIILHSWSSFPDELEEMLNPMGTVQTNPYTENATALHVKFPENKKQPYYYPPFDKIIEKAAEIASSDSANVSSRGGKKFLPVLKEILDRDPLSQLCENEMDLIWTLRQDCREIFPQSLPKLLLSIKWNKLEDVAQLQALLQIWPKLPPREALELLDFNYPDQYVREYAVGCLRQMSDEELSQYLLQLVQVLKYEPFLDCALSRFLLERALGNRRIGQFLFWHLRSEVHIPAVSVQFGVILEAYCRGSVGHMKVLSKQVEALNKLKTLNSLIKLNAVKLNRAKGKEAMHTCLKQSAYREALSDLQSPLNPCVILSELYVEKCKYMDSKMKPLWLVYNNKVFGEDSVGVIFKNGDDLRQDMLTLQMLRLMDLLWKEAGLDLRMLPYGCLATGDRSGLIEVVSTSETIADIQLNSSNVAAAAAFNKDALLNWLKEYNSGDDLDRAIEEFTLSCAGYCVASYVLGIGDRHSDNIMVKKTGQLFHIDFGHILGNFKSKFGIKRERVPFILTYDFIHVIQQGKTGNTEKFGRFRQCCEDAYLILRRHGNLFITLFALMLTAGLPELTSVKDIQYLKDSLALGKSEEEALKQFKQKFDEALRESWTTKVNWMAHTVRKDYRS

[30] = biological target: Alpha-2A adrenergic receptor (Homo sapiens) (UniProt P08913); conditions: Compound concentration 10.0 uM
[31] = biological target: Serine/threonine-protein kinase LATS1 (Homo sapiens) (UniProt O95835); conditions: Compound concentration 1000.0 nM
[32] = biological target: Serine/threonine-protein kinase haspin (Homo sapiens) (UniProt Q8TF76); conditions: Compound concentration 1000.0 nM
[33] = system: Receptor-type tyrosine-protein kinase FLT3 (Homo sapiens), P36888 [R834Q]; conditions: Compound concentration 1000.0 nM
[34] = biological target: Serine/threonine-protein kinase pim-2 (Homo sapiens) (UniProt Q9P1W9); conditions: Compound concentration 1000.0 nM
[35] = biological target: Cyclin-dependent kinase 5 (Homo sapiens) (UniProt Q00535); conditions: Compound concentration 1000.0 nM
[36] = biological target: Cyclin-dependent kinase 13 (Homo sapiens) (UniProt Q14004); conditions: Compound concentration 1000.0 nM
[37] = biological target: Dual specificity tyrosine-phosphorylation-regulated kinase 2 (Homo sapiens) (UniProt Q92630); conditions: Compound concentration 1000.0 nM
[38] = biological target: Calcium/calmodulin-dependent protein kinase kinase 2 (Homo sapiens) (UniProt Q96RR4); conditions: Compound concentration 1000.0 nM
[39] = biological target: Tyrosine-protein kinase receptor Tie-1 (Homo sapiens) (UniProt P35590); conditions: Compound concentration 1000.0 nM
[40] = biological target: Casein kinase I isoform alpha-like (Homo sapiens) (UniProt Q8N752); conditions: Compound concentration 1000.0 nM
Sequence of Casein kinase I isoform alpha-like (Homo sapiens) (Q8N752 whole entry, canonical isoform): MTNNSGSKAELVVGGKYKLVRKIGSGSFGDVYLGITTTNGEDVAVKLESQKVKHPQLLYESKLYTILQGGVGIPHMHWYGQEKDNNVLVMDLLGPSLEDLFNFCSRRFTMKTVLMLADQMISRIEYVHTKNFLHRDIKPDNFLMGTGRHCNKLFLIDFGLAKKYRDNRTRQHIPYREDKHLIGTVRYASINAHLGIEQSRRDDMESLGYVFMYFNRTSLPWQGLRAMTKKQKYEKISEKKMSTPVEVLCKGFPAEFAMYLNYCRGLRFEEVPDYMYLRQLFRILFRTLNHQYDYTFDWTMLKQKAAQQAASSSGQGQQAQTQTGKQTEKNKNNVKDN

[41] = biological target: Mitogen-activated protein kinase 6 (Homo sapiens) (UniProt Q16659); conditions: Compound concentration 1000.0 nM
[42] = biological target: Non-receptor tyrosine-protein kinase TYK2 (Homo sapiens) (UniProt P29597); conditions: Compound concentration 1000.0 nM
[43] = biological target: Ephrin type-A receptor 4 (Homo sapiens) (UniProt P54764); conditions: Compound concentration 1000.0 nM
[44] = biological target: Phosphatidylinositol 4-phosphate 5-kinase type-1 gamma (Homo sapiens) (UniProt O60331); conditions: Compound concentration 1000.0 nM
[45] = biological target: MAP kinase-interacting serine/threonine-protein kinase 1 (Homo sapiens) (UniProt Q9BUB5); conditions: Compound concentration 1000.0 nM

Sequence of Serine/threonine-protein kinase 32C (Homo sapiens) (Q86UX6 whole entry): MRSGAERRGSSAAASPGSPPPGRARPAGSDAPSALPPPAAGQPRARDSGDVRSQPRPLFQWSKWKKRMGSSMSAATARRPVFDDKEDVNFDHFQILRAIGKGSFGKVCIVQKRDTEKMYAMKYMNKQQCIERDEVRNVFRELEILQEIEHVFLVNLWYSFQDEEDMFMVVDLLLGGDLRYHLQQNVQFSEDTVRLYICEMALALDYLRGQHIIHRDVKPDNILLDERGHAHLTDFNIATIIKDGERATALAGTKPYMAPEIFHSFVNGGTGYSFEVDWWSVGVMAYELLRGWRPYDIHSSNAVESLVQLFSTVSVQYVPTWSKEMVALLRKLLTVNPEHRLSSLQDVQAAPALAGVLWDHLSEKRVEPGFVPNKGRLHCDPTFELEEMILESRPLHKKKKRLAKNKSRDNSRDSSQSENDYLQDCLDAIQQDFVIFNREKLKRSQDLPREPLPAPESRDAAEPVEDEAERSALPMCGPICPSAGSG

CCS(=O)(=O)c1cc2cc(C[C@](O)(CC(C)(C)c3ccc(F)cc3C(N)=O)C(F)(F)F)[nH]c2cn1
residual activity [1]: 72% | residual activity [2]: 93% | residual activity [3]: 100% | residual activity [4]: 100% | residual activity [5]: 92% | residual activity [6]: 100% | residual activity [7]: 100% | residual activity [8]: 100% | residual activity [9]: 100% | residual activity [10]: 83% | residual activity [11]: 100% | inhibition [12]: 4.71% | residual activity [13]: 100% | residual activity [14]: 95% | residual activity [15]: 97% | residual activity [16]: 100% | residual activity [17]: 100% | residual activity [18]: 100% | residual activity [19]: 74% | residual activity [20]: 100% | residual activity [21]: 100% | residual activity [22]: 95% | residual activity [23]: 87% | residual activity [24]: 87% | residual activity [25]: 98% | residual activity [26]: 100% | residual activity [27]: 100% | residual activity [28]: 99% | residual activity [29]: 98% | inhibition [30]: -4.94% | residual activity [31]: 98% | residual activity [32]: 100% | residual activity [33]: 100% | residual activity [34]: 100% | residual activity [35]: 100% | residual activity [36]: 100% | residual activity [37]: 92% | residual activity [38]: 100% | residual activity [39]: 100% | residual activity [40]: 100% | residual activity [41]: 100% | residual activity [42]: 100% | residual activity [43]: 100% | residual activity [44]: 100% | residual activity [45]: 97%

CCS(=O)(=O)c1cc2cc(C[C@@](O)(CC(C)(C)c3ccc(F)cc3C(N)=O)C(F)(F)F)[nH]c2cn1
residual activity [1]: 100% | residual activity [2]: 100% | residual activity [3]: 90% | residual activity [4]: 100% | residual activity [5]: 89% | residual activity [6]: 42% | residual activity [7]: 100% | residual activity [8]: 85% | residual activity [9]: 99% | residual activity [10]: 81% | residual activity [11]: 95% | inhibition [12]: 15.2% | residual activity [13]: 78% | residual activity [14]: 89% | residual activity [15]: 57% | residual activity [16]: 80% | residual activity [17]: 93% | residual activity [18]: 98% | residual activity [19]: 80% | residual activity [20]: 91% | residual activity [21]: 100% | residual activity [22]: 85% | residual activity [23]: 94% | residual activity [24]: 51% | residual activity [25]: 51% | residual activity [26]: 88% | residual activity [27]: 100% | residual activity [28]: 78% | residual activity [29]: 87% | inhibition [30]: -5.76% | residual activity [31]: 77% | residual activity [32]: 80% | residual activity [33]: 78% | residual activity [34]: 99% | residual activity [35]: 100% | residual activity [36]: 91% | residual activity [37]: 83% | residual activity [38]: 56% | residual activity [39]: 66% | residual activity [40]: 99% | residual activity [41]: 72% | residual activity [42]: 82% | residual activity [43]: 95% | residual activity [44]: 98% | residual activity [45]: 46%
